{"source": "patent US20050221328A1", "about": "“Inhibitors of inflammatory gene activity and cholesterol biosynthesis” (Wyeth, priority 2002, published 2005);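 as to IL-1 Induction JE/MCP-1 (Scya2): ovariectomized C57BL/6 mice, liver polyA RNA profiled, values are fold expression relative to vehicle plus PBS, averaged over two independent experiments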;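 as to IL-1 Induction LIX (Scyb5): ovariectomized C57BL/6 mice, liver polyA RNA profiled, values are fold expression relative to vehicle plus PBS, averaged over two independent experiments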;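 as to IL-1 Induction LPS inducible C—C chemokine receptor related (AF030185): ovariectomized C57BL/6 mice, liver polyA RNA profiled, values are fold expression relative to vehicle plus PBS, averaged over two independent experiments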;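 as to IL-1 Induction M-CSF (Csf1): ovariectomized C57BL/6 mice, liver polyA RNA profiled, values are fold expression relative to vehicle plus PBS, averaged over two independent experiments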", "key": {"mouse liver": {"test_system": "mouse liver", "settings": "GeneChip, 1 h after 20 ug/kg IL-1β ip, pretreated 5 days with vehicle or 100 ug/kg/day EE sc, vehicle+PBS=1.0", "method": "Experiments were conducted to evaluate IL-1β regulation of gene expression in the mouse liver. Ovariectomized C57BL/6 mice were pretreated by subcutaneous administration of either corn oil/ethanol vehicle or 100 ug/kg/day ethynylestradiol (EE) for 5 days. On the fifth day, the mice received an intraperitoneal injection of either PBS or 20 ug/kg IL-1β in PBS. One hour later the livers were removed and polyA RNA was prepared. Global gene expression was determined by analysis using murine 11K GeneChips from Affymetrix. For each gene, the level of expression in animals receiving vehicle pretreatment plus PBS was defined as 1.0, with the expression levels in the mice receiving vehicle pretreatment±IL-1β or EE pretreatment±IL-1β defined relative to this. The results shown are the mean from two independent experiments.\nThe fold regulation of each gene is plotted for animals receiving vehicle pretreatment x-axis) vs. animals receiving pretreatment with EE (y-axis). Genes with IL-1β induction unaffected by EE pretreatment would lie along the dotted diagonal."}, "Fnk, JAB, LIX, and bcl-3": {"test_system": "Fnk, JAB, LIX, and bcl-3", "assay": "EE alteration of IL-1β induction of Fnk, JAB, LIX and bcl-3 in liver, spleen and lung", "format": "in vivo, mouse", "settings": "EE pretreatment", "source_text": "The requirement for ERα for EE activity in the liver is consistent with the nearly exclusive presence of ERα in the liver (as determined by realtime PCR, panel A). In contrast, the lung expresses relatively low levels of ERα and high levels of ERB. […] In contrast, EE pretreatment had no effect on IL-1β induction of Fnk, JAB, LIX, or bcl-3 in the lung."}}}
{"smiles": "C#C[C@]1(O)CC[C@H]2[C@@H]3CCc4cc(O)ccc4[C@H]3CC[C@@]21C", "note": "[EE, ethynylestradiol]", "values": [{"measurement": "IL-1 Induction JE/MCP-1 (Scya2)", "setting": "mouse liver", "value": 64.4, "unit": "fold"}, {"measurement": "IL-1 Induction LIX (Scyb5)", "setting": "mouse liver", "value": 2.9, "unit": "fold"}, {"measurement": "IL-1 Induction LPS inducible C—C chemokine receptor related (AF030185)", "setting": "mouse liver", "value": 5.6, "unit": "fold"}, {"measurement": "IL-1 Induction M-CSF (Csf1)", "setting": "mouse liver", "value": 23.9, "unit": "fold"}, {"measurement": "IL-1 Induction MARCKS-like macrophage protein (Mlp)", "setting": "mouse liver", "value": 5.1, "unit": "fold"}, {"measurement": "IL-1 Induction MIG (Scyb9)", "setting": "mouse liver", "value": 5.4, "unit": "fold"}, {"measurement": "IL-1 Induction MIP2 (Scyb2)", "setting": "mouse liver", "value": 91.1, "unit": "fold"}, {"measurement": "IL-1 Induction MIP-1 gamma (Scya9)", "setting": "mouse liver", "value": 1.9, "unit": "fold"}, {"measurement": "IL-1 Induction MyD118 (GADD45b)", "setting": "mouse liver", "value": 12.9, "unit": "fold"}, {"measurement": "IL-1 Induction NF-E2 related factor 2 (NRF2) (Nfe212)", "setting": "mouse liver", "value": 7.2, "unit": "fold"}, {"measurement": "IL-1 Induction NF-kappa-B p105 (Nfkb1)", "setting": "mouse liver", "value": 6.2, "unit": "fold"}, {"measurement": "IL-1 Induction NFkB p100 (Nfkb2)", "setting": "mouse liver", "value": 2.8, "unit": "fold"}, {"measurement": "IL-1 Induction PAI-1 (Serpine1)", "setting": "mouse liver", "value": 40.8, "unit": "fold"}, {"measurement": "IL-1 Induction PDGF-induced KC (Gro1)", "setting": "mouse liver", "value": 6.1, "unit": "fold"}, {"measurement": "IL-1 Induction PIM-1 protein kinase (Pim1)", "setting": "mouse liver", "value": 2.1, "unit": "fold"}, {"measurement": "IL-1 Induction SHP (NrGb2)", "setting": "mouse liver", "value": 0.53, "unit": "fold"}, {"measurement": "IL-1 Induction T-cell death associated gene (Tdag)", "setting": "mouse liver", "value": 2.2, "unit": "fold"}, {"measurement": "IL-1 Induction T-cell specific GTPase (Tgtp)", "setting": "mouse liver", "value": 2.8, "unit": "fold"}, {"measurement": "IL-1 Induction TGFB inducible early growth response (Tieg)", "setting": "mouse liver", "value": 0.38, "unit": "fold"}, {"measurement": "IL-1 Induction Ubiquitin-conjugating E2 enzyme variant 2 (Ube2v2)", "setting": "mouse liver", "value": 5.3, "unit": "fold"}, {"measurement": "IL-1 Induction VCAM-1 (Vcam1)", "setting": "mouse liver", "value": 12.5, "unit": "fold"}, {"measurement": "IL-1 Induction adrenergic receptor, beta 2 (Adrb2)", "setting": "mouse liver", "value": 3.1, "unit": "fold"}, {"measurement": "IL-1 Induction adrenomedullin (Adm)", "setting": "mouse liver", "value": 10.0, "unit": "fold"}, {"measurement": "IL-1 Induction apoptosis inhibitor 1 (Birc2)", "setting": "mouse liver", "value": 8.9, "unit": "fold"}, {"measurement": "IL-1 Induction apoptosis inhibitor 2 (Birc3)", "setting": "mouse liver", "value": 4.3, "unit": "fold"}, {"measurement": "IL-1 Induction bcl-3 (Bcl3)", "setting": "mouse liver", "value": 6.2, "unit": "fold"}, {"measurement": "IL-1 Induction c-JUN (Jun)", "setting": "mouse liver", "value": 5.6, "unit": "fold"}, {"measurement": "IL-1 Induction calcium binding protein A6 (S100a6)", "setting": "mouse liver", "value": 2.6, "unit": "fold"}, {"measurement": "IL-1 Induction calgranulin A (S100A8)", "setting": "mouse liver", "value": 10.7, "unit": "fold"}, {"measurement": "IL-1 Induction calgranulin B (S100a9)", "setting": "mouse liver", "value": 25.7, "unit": "fold"}, {"measurement": "IL-1 Induction cytokine-inducible kinase Fnk (Cnk)", "setting": "mouse liver", "value": 0.3, "unit": "fold"}, {"measurement": "IL-1 Induction gly96 (ler3)", "setting": "mouse liver", "value": 43.8, "unit": "fold"}, {"measurement": "IL-1 Induction growth factor receptor bound protein 7 (Grb7)", "setting": "mouse liver", "value": 0.13, "unit": "fold"}, {"measurement": "IL-1 Induction guanylate nucleotide binding protein 2 (Gbp2)", "setting": "mouse liver", "value": 3.6, "unit": "fold"}, {"measurement": "IL-1 Induction helix-loop-helix factor HES-1 (Hes1)", "setting": "mouse liver", "value": 0.25, "unit": "fold"}, {"measurement": "IL-1 Induction heme oxygenase 1 (Hmox1)", "setting": "mouse liver", "value": 3.0, "unit": "fold"}, {"measurement": "IL-1 Induction hsp68 (Hsp70-3)", "setting": "mouse liver", "value": 1.5, "unit": "fold"}, {"measurement": "IL-1 Induction inducible 6-phosphofructo-2-kinase (AA163244)", "setting": "mouse liver", "value": 3.0, "unit": "fold"}, {"measurement": "IL-1 Induction inhibitor of DNA binding 3 (idb3)", "setting": "mouse liver", "value": 3.1, "unit": "fold"}, {"measurement": "IL-1 Induction insulin-like growth factor binding protein 1 (lgfbp1)", "setting": "mouse liver", "value": 4.3, "unit": "fold"}, {"measurement": "IL-1 Induction intercrine (Scya7)", "setting": "mouse liver", "value": 11.4, "unit": "fold"}, {"measurement": "IL-1 Induction interferon regulatory factor 1 (Irf1)", "setting": "mouse liver", "value": 9.0, "unit": "fold"}, {"measurement": "IL-1 Induction junB (Junb)", "setting": "mouse liver", "value": 2.6, "unit": "fold"}, {"measurement": "IL-1 Induction lipocalin 2 (Lcn2)", "setting": "mouse liver", "value": 2.9, "unit": "fold"}, {"measurement": "IL-1 Induction lkB-beta (Nfkbib)", "setting": "mouse liver", "value": 2.8, "unit": "fold"}, {"measurement": "IL-1 Induction m-myc (Myc)", "setting": "mouse liver", "value": 3.4, "unit": "fold"}, {"measurement": "IL-1 Induction macrophage interferon inducible protein 10 (Scyb10)", "setting": "mouse liver", "value": 39.3, "unit": "fold"}, {"measurement": "IL-1 Induction metalloproteinase-disintegrin (Adamts1)", "setting": "mouse liver", "value": 4.6, "unit": "fold"}, {"measurement": "IL-1 Induction molecule possessing ankyrin-repeats induced by LPS (aa614971)", "setting": "mouse liver", "value": 22.7, "unit": "fold"}, {"measurement": "IL-1 Induction myocyte-enriched calcineurin interactin protein (Dscrl)", "setting": "mouse liver", "value": 9.3, "unit": "fold"}, {"measurement": "IL-1 Induction noctumin (Ccr4)", "setting": "mouse liver", "value": 9.0, "unit": "fold"}, {"measurement": "IL-1 Induction p65 NF-kappa B (Rela)", "setting": "mouse liver", "value": 2.4, "unit": "fold"}, {"measurement": "IL-1 Induction phospholipid scramblase 1 (Plscr1)", "setting": "mouse liver", "value": 5.6, "unit": "fold"}, {"measurement": "IL-1 Induction protein tyrosine phosphatase 4a1 (Ptp4a1)", "setting": "mouse liver", "value": 1.2, "unit": "fold"}, {"measurement": "IL-1 Induction regulator for ribosome resistance homolog (Rrr)", "setting": "mouse liver", "value": 3.3, "unit": "fold"}, {"measurement": "IL-1 Induction relB (Relb)", "setting": "mouse liver", "value": 7.9, "unit": "fold"}, {"measurement": "IL-1 Induction rhoB (Arhb)", "setting": "mouse liver", "value": 18.5, "unit": "fold"}, {"measurement": "IL-1 Induction serum amyloid A 3 (Saa3)", "setting": "mouse liver", "value": 36.0, "unit": "fold"}, {"measurement": "IL-1 Induction serum amyloid A 4 (Saa4)", "setting": "mouse liver", "value": 1.9, "unit": "fold"}, {"measurement": "IL-1 Induction suppressor of cytokine signaling 2 (Cish2)", "setting": "mouse liver", "value": 1.7, "unit": "fold"}, {"measurement": "IL-1 Induction suppressor of cytokine signaling 3 (Cish3)", "setting": "mouse liver", "value": 6.0, "unit": "fold"}, {"measurement": "IL-1 Induction transglutaminase (Tgm2)", "setting": "mouse liver", "value": 8.0, "unit": "fold"}, {"measurement": "IL-1β induction of Fnk, JAB, LIX, and bcl-3 in the liver", "setting": "Fnk, JAB, LIX, and bcl-3; liver", "value": "significantly blocked"}, {"measurement": "IL-1β induction of Fnk, JAB, LIX, or bcl-3 in the lung", "setting": "Fnk, JAB, LIX, and bcl-3; lung", "value": "no effect"}, {"measurement": "IL-1β induction of Fnk and JAB in the spleen", "setting": "Fnk, JAB, LIX, and bcl-3; spleen", "value": "blocked"}]}
